How the values were obtained:
MoAb R-2-2 = experiment: Inhibition ELISA of MoAb R-2-2; type: binding, mouse; parameters: concentration or dose not given beside the values; conditions: tissue culture supernatant
Procedure: (§1) Inhibition ELISA Protocol
(§2) 1. Use Falcon® Pro-bind™ inununoplates.
(§3) 2. Dilute coating antigen to 1 μg/mL in carbonate-bicarbonate buffer.
(§4) Add 100 μL per well and incubate overnight at 4° C.
(§5) 3. On the same day prepare inhibiting antigen tubes. Aliquot antibodies into glass test tubes. Prepare appropriate antigen concentration in ethanol and add to aliquoted antibody at 10 μL ethanol solution/250 μL antibody.
(§6) Vortex tubes and incubate overnight at 4° C.
(§7) 4. Shake out wells and wash 3× with 200 μL PBS/0.05% TWEEN™ (polyoxyethylene-sorbitol) (v/v) per well.
(§8) 5. Add 200 μL blocking buffer per well (PBS/2% BSA (w/v)).
(§9) Incubate 60 min at room temperature.
(§10) 7. Transfer contents of inhibition tubes to antigen-coated plate, 100 μL per well. Incubate 60 min at 37° C.
(§11) 9. […] Add 100 μL per well and incubate at 37° C. for 60 min.
(§12) 11. […] Add 100 μL per well and incubate in the dark at room temperature. Absorbance can be read at 405 nm at approximately 15-min intervals.
(§13) To further characterize the reactivity of monoclonal antibodies from various clones, inhibition ELISA were performed.

[1] = test system: Chicken polyclonal antibody (IgY, Rapa-42-DVS-KLH immunogen); experiment: Inhibition ELISA of chicken IgY prep; type: binding; parameters: concentration or dose not given beside the values; conditions: Rapa antigen coated ELISA plate
Procedure: as §1, §2, §3, §4, §5, §6, §7, §8, §9, §10, §11, §12

MoAb R-3-1 = experiment: Inhibition ELISA of MoAb R-3-1; type: binding, mouse; parameters: concentration or dose not given beside the values; conditions: tissue culture supernatant
Procedure: as §1, §2, §3, §4, §5, §6, §7, §8, §9, §10, §11, §12, §13

MoAb R-1-5 = experiment: Inhibition ELISA of MoAb R-1-5; type: binding, mouse; parameters: concentration or dose not given beside the values; conditions: tissue culture supernatant
Procedure: as §1, §2, §3, §4, §5, §6, §7, §8, §9, §10, §11, §12, §13

MoAb R-1-1 = experiment: Inhibition ELISA of MoAb R-1-1; type: binding, mouse; parameters: concentration or dose not given beside the values; conditions: tissue culture supernatant
Procedure: as §1, §2, §3, §4, §5, §6, §7, §8, §9, §10, §11, §12, §13

[2] = test system: Rabbit #1 polyclonal antibody (Rapa-42-DVS-KLH immunogen); experiment: Inhibition ELISA of rabbit #1 polyclonal serum; type: binding; parameters: concentration or dose not given beside the values; conditions: Rapa antigen coated ELISA plate
Procedure: as §1, §2, §3, §4, §5, §6, §7, §8, §9, §10, §11, §12

[3] = test system: Mouse polyclonal antibody Rapa-DVS #9; experiment: Inhibition ELISA of mouse polyclonal serum Rapa-DVS #9; type: binding; parameters: concentration or dose not given beside the values
Procedure: as §1, §2, §3, §4, §5, §6, §7, §8, §9, §10, §11, §12

[4] = test system: Mouse polyclonal antibody Rapa-27 #12 (Rapa-27-ox-DVS-KLH immunogen); experiment: Inhibition ELISA of mouse polyclonal serum Rapa-27 #12; parameters: concentration or dose not given beside the values; conditions: binding to Rapa-27-HSA
Procedure: as §1, §2, §3, §4, §5, §6, §7, §8, §9, §10, §11, §12

MoAb R-5-3 = experiment: Inhibition ELISA of MoAb R-5-3; type: binding, mouse; conditions: for Percent inhibition of MoAb R-5-3: tissue culture supernatant
Procedure: as §1, §2, §3, §4, §5, §6, §7, §8, §9, §10, §11, §12

MoAb R-4-1 = experiment: Inhibition ELISA of MoAb R-4-1; type: binding, mouse; conditions: for Percent inhibition of MoAb R-4-1: tissue culture supernatant
Procedure: as §1, §2, §3, §4, §5, §6, §7, §8, §9, §10, §11, §12

MoAb R-6-2 = experiment: Inhibition ELISA of MoAb R-6-2; type: binding, mouse
Procedure: as §1, §2, §3, §4, §5, §6, §7, §8, §9, §10, §11, §12

MoAb R-4-7 = experiment: Inhibition ELISA of MoAb R-4-7; type: binding, mouse; conditions: for Percent inhibition of MoAb R-4-7: tissue culture supernatant
Procedure: as §1, §2, §3, §4, §5, §6, §7, §8, §9, §10, §11, §12

[5] = test system: Mouse polyclonal antibody Rapa-DVS #7; experiment: Inhibition ELISA of mouse polyclonal serum Rapa-DVS #7; type: binding; parameters: concentration or dose not given beside the values
Procedure: as §1, §2, §3, §4, §5, §6, §7, §8, §9, §10, §11, §12

MoAb R-6-3 = experiment: Inhibition ELISA of MoAb R-6-3; type: binding, mouse
Procedure: as §1, §2, §3, §4, §5, §6, §7, §8, §9, §10, §11, §12

[6] = Relative concentrations of Rapa metabolites in pooled whole blood patient samples (LC/MS); type: in vivo; conditions: Rapa = 1
From the text: No individual metabolite is found at a concentration greater than 20% of the Rapa parent level.

lymphocytes = experiment: In vitro mixed lymphocyte reaction (MLR) assay, two-way lymphocyte proliferation; type: cell-based; conditions: 3H-thymidine incorporation
From the text: The MLR assay is useful for identifying rapamycin metabolites with biological (immunosupressive) activity and to quantify this activity relative to the immunosuppressive activity of the parent rapamycin molecule.
An example of a two-way lymphocyte proliferation assay procedure useful for this purpose is as follows:
1. Collect blood from two individuals (20 mls each) and isolate lymphocytes using Ficoll-Paque™ (polysucrose and sodium diatrizoate) (Pharmacia Biotech).
2. Count lymphocytes at 1:10 dilution in 2% acetic acid (v/v).
3. Prepare 10 mls of each lymphocyte populations (A+B) at 1×10^6 cells/ml in DMEM/20% FCS (v/v).
4. Set up a 96 well sterile tissue culture plate, flat bottom (Sarstedt, cat # 83.1835). To each well add:
5. Aliquot 100 μl per well lymphocyte population A
6. Aliquot 100 μl per well lymphocyte population B
7. Aliquot 20 μl per well of drug (rapamycin and rapamycin metabolites M1-5) serially diluted 0 to 1000 μg/L in triplicate in DMEM with no supplements.
8. […]
10. […] Wash cells 3× with 1.0-ml sterile distilled water.
Note: All procedures are done using sterile techniques in a biological flow hood.
11. Place filters in Scintilation vials and add 1.5 mls of ScintiSafe Plus™ 50% scintillation fluid (Fisher, cat #SX-25-5).
12. Measure the amount of radioactivity incorporated in the lymphocytes using a beta counter (Micromedic System Inc., TAURUS™ Automatic Liquid Scintillation Counter) for 1.0 minute.
13. Calculate averages and standard deviations for each drug and express results as: [formula]

Compound	Percent inhibition of MoAb R-2-2 (MoAb R-2-2) [%]	Percent inhibition of Chicken polyclonal antibody [1] [%]	Percent inhibition of MoAb R-3-1 (MoAb R-3-1) [%]	Percent inhibition of MoAb R-1-5 (MoAb R-1-5) [%]	Percent inhibition of MoAb R-1-1 (MoAb R-1-1) [%]	Percent inhibition of Rabbit #1 polyclonal antibody [2] [%]	Percent inhibition of mouse polyclonal antibody Rapa-DVS #9 [3] [%]	Percent inhibition of mouse polyclonal antibody Rapa-27 #12 [4] [%]	Percent inhibition of MoAb R-5-3 (MoAb R-5-3) [%]	Percent inhibition of MoAb R-4-1 (MoAb R-4-1) [%]	Percent inhibition of MoAb R-4-7 (MoAb R-4-7) [%]	Percent inhibition of mouse polyclonal antibody Rapa-DVS #7 [5] [%]	further results
C=CCC1C=C(C)CC(C)CC(O)C2OC(O)(C(=O)C(=O)N3CCCCC3C(=O)OC(C(C)=CC3CCC(O)C(O)C3)C(C)C(O)CC1=O)C(C)CC2OC (centres unmarked) [FK met 5, 15,3 1-O-Didemethyl]	13	0	0	26	46	0	–	–	–	–	–	–	–
C=CC[C@@H]1/C=C(\C)C[C@H](C)C[C@H](OC)[C@H]2O[C@@](O)(C(=O)C(=O)N3CCCC[C@H]3C(=O)O[C@H](/C(C)=C/[C@@H]3CC[C@@H](O)[C@H](OC)C3)[C@H](C)[C@@H](O)CC1=O)[C@H](C)C[C@@H]2OC [FK, FK-506]	16	0	1	33	43	0	13.0	11	4	8	4	5.6	Percent inhibition of MoAb R-6-2 (MoAb R-6-2): 64%; Percent inhibition of MoAb R-6-3 (MoAb R-6-3): 53%
C=CCC1C=C(C)CC(C)CC(O)C2OC(O)(C(=O)C(=O)N3CCCCC3C(=O)OC(C(C)=CC3CCC(O)C(OC)C3)C(C)C(O)CC1=O)C(C)CC2OC (centres unmarked) [FK met 2, 15-O-Demethyl]	16	0	0	36	57	0	–	–	–	–	–	–	–
C=CCC1C=C(C)CC(C)CC(OC)C2OC(O)(C(=O)C(=O)N3CCCCC3C(=O)OC(C(C)=CC3CCC(O)C(O)C3)C(C)C(O)CC1=O)C(C)CC2O (centres unmarked) [FK met 4, 13,3 1-Didemethyl]	13	13	0	38	53	0	–	–	–	–	–	–	–
C=CCC1C=C(C)CC(C)CC(OC)C2OC(O)(C(=O)C(=O)N3CCCCC3C(=O)OC(C(C)=CC3CCC(O)C(OC)C3)C(C)C(O)CC1=O)C(C)CC2O (centres unmarked) [FK met 1, 13-O-Demethyl]	19	0	0	24	46	0	–	–	–	–	–	–	–
C=CCC1C=C(C)CC(C)CC(OC)C2OC(O)(C(=O)C(=O)N3CCCCC3C(=O)OC(C(C)=CC3CCC(O)C(O)C3)C(C)C(O)CC1=O)C(C)CC2OC (centres unmarked) [FK met 3, 31-O-Demethyl]	9	0	0	26	45	0	–	–	–	–	–	–	–
CO[C@H]1C[C@@H]2CC[C@@H](C)[C@@](O)(O2)C(=O)C(=O)N2CCCC[C@H]2C(=O)O[C@H]([C@H](C)C[C@@H]2CC[C@@H](O)[C@H](O)C2)CC(=O)[C@H](C)/C=C(\C)[C@@H](O)[C@@H](O)C(=O)[C@H](C)C[C@H](C)/C=C/C=C/C=C/1C [M5, 32,41-Demethyl Rapamycin]	10	35	94	44	29	16	37.3	0	46	88	87	39.8	Relative Concentration in whole blood [6]: 0.02; Mixed Lymphocyte Reaction IC50, Mean (lymphocytes): 4.67 ng/mL
CO[C@@H]1C[C@H](C[C@@H](C)[C@@H]2CC(=O)[C@H](C)/C=C(\C)[C@@H](O)[C@@H](OC)C(=O)[C@H](C)C[C@H](C)/C=C/C=C/C=C(\C)[C@@H](O)C[C@@H]3CC[C@@H](C)[C@@](O)(O3)C(=O)C(=O)N3CCCC[C@H]3C(=O)O2)CC[C@H]1O [M3, 7-O-Demethyl Rapamycin]	26	35	92	56	32	15	30.8	–	37	85	67	28.3	Percent inhibition of mouse polyclonal antibody Rapa-27 #12 ([4]; listed as Met 3): 43%; Percent inhibition of mouse polyclonal antibody Rapa-27 #12 ([4]; listed as metabolite # 3): 42%; Relative Concentration in whole blood [6]: 0.10; Mixed Lymphocyte Reaction IC50, Mean (lymphocytes): 2.85 ng/mL
CO[C@H]1C[C@@H]2CC[C@@H](C)[C@@](O)(O2)C(=O)C(=O)N2CCCC[C@H]2C(=O)O[C@H]([C@H](C)C[C@@H]2CC[C@@H](OCCO)[C@H](OC)C2)CC(=O)[C@H](C)/C=C(\C)[C@@H](O)[C@@H](OC)C(=O)[C@H](C)C[C@H](C)/C=C/C=C/C=C/1C [RAD]	–	–	–	–	–	–	–	–	–	–	–	–	Inhibition of MoAb R-5-3 (in words) (MoAb R-5-3; purified MoAb, increasing concentrations of Rapa or RAD, FIG. 3B): inhibited; Inhibition of MoAb R-4-1 (in words) (MoAb R-4-1; purified MoAb, increasing concentrations of Rapa or RAD, FIG. 3A): inhibited; Percent inhibition of MoAb R-6-2 (MoAb R-6-2): 70%; Inhibition of MoAb R-4-7 (in words) (MoAb R-4-7): inhibited; Percent inhibition of MoAb R-6-3 (MoAb R-6-3): 58%
CO[C@H]1C[C@@H]2CC[C@@H](C)[C@@](O)(O2)C(=O)C(=O)N2CCCC[C@H]2C(=O)O[C@H]([C@H](C)C[C@@H]2CC[C@@H](O)[C@H](O)C2)CC(=O)[C@H](C)/C=C(\C)[C@@H](O)[C@@H](OC)C(=O)[C@H](C)C[C@H](C)/C=C/C=C/C=C/1C [M4, 41-O-Demethyl Rapamycin]	71	18	96	57	30	28	28.6	37	47	82	54	40.1	Relative Concentration in whole blood [6]: 0.10; Mixed Lymphocyte Reaction IC50, Mean (lymphocytes): 5.9 ng/mL
keyhole limpet hemocyanin [KLH]	16	0	0	10	3	0	12.5	0	–	–	–	7.8	–

Reference: US6709873B1, “Method for production of antibodies to specific sites of rapamycin” (Isodiagnostika Inc., priority 1997, dated 2004)
